One test deals with E. coli 70S ribosomes. The experiment in a line: competition-binding assay with BODIPY-ERY (fluorescence anisotropy). The note with it: for Kd: displacement of BODIPY-ERY from E. coli 70S ribosomes, read-out: apparent dissociation constant (KDapp). From the text:
All new semi-synthetic CAM-Cn-TPP compounds were expected to bind and act on bacterial ribosomes by inhibiting protein synthesis, which is similar to CAM-C4-TPP and the PTC-targeting parent antibiotic CHL. To assess the affinity of CAM-C10-TPP and CAM-C14-TPP for the bacterial 70S ribosome (Figure 2A), a competition-binding assay exploiting BODIPY-labeled erythromycin (BODIPY-ERY) was used. […] It is likely that in the case of CAM-C14-TPP, the linker may be too long, preventing the optimal positioning of the TPP moiety in the NPET. Thus, CAM-C10-TPP and CAM-C14-TPP bind to the bacterial ribosome. However, their affinity strongly depends on the length of the linker connecting the two […]. Among the three CAM-Cn-TPPs, the C10-linker was optimal in terms of its ability to bind to the 70S ribosome.
The binding affinity of CAM-Cn-TPP to E. coli ribosomes was analyzed by a competition-binding assay using the fluorescently-labeled BODIPY-ERY, as described before. BODIPY-Ery (16 nM) was incubated with the ribosomes (50 nM) in the buffer containing 20 mM HEPES-KOH (pH 7.5), 50 mM NH4Cl, 10 mM Mg(CH3COO)2, 4 mM mercaptoethanol, and 0.05% Tween-20 for 30 min at 25 °C. Solutions of CHL, CAM-Cn-TPP, and CnTPP in different concentration ranges were added to the formed complex. The mixture was incubated for 2 h, until an equilibrium was reached, and the values of fluorescence anisotropy were measured by VICTOR X5 Multilabel Plate Reader (Perkin Elmer, Waltham, MA, USA). The dissociation constants were calculated based on the assumption of the equilibrium competitive binding of two ligands at a single binding site, as described in [70].

Test [1] concerns E. coli BW25113 ΔtolC pDualrep2 reporter strain. The experiment in a line: pDualrep2 double fluorescent reporter assay on agar plate. The note with it: compound spotted on agar lawn, overnight 37 °C. The format is cell-based. An excerpt: Next, we tested the effects of CAM-C10-TPP and CAM-C14-TPP in bacterial cells using an E. coli ∆tolC-based reporter system, which is designed to screen inhibitors targeting either protein synthesis or DNA replication. In this reporter system, the gene of the far-red fluorescent protein, katushka2S, is inserted downstream of the genetically modified tryptophan attenuator, making it possible to express Katushka2S only upon exposure to ribosome-stalling compounds (Figure 2B, CHL and ERY, red pseudocolor rings).
Reporter strain […] [71] ΔtolC (BW25113) pDualrep2 was used, as previously described. The tested antibiotics, CAM-C10-TPP (10 mM, 1.5 μL), CAM-C14-TPP (10 mM, 1.5 μL), C10-TPP (10 mM, 1.5 μL), C14-TPP (10 mM, 1.5 μL), CAM (10 mM, 1.5 μL), CAM-Ac (10 mM, 1.5 μL), chloramphenicol (CHL, 2 mM, 1 μL), erythromycin (Ery, 7 mM, 1 μL), and levofloxacin (Lev, 70 nM, 1 μL), were applied to an agar plate that already contained a lawn of the reporter strain. After being incubated overnight at 37 °C, the plate was scanned by ChemiDoc (Bio-Rad) in the modes, “Cy3-blot” for RFP and “Cy5-blot” for Katushka2S.
On the technique in general: Reporter assays use an easily measured gene product as a stand-in for the process of interest.

Test [2] has as its system ribosome stalling on trpL mRNA in a cell-free translation system. The experiment in a line: toeprinting (primer extension inhibition) assay on trpL mRNA. The format is biochemical. The note with it: trpL mRNA template, 30 μM compound. An excerpt: To investigate the mechanism of action of CAM-C10-TPP and CAM-C14-TPP in the translation process, a primer extension inhibition assay (toeprinting) was used. This method allows for the unambiguous identification of drug-induced ribosome stalling sites along the mRNA, with single-nucleotide precision. This technique is also used to determine the context-specificity of antibiotic action. For this experiment, trpL mRNAs were chosen as the template, as in the pDualrep2 reporter system. […] Compared to the results obtained previously for CAM-C4-TPP using rst1 and rst2 mRNA templates, more unambiguous results were obtained using a trpL mRNA template. The main drug-induced ribosome stalling sites are different for CHL and CAM-Cn-TPP, and there are also CAM-Cn-TPP-specific stalling positions.
The toeprinting assay was carried out using trpL mRNA as a template, as described in [73], and the reactions were preincubated for 5 min with 30 μM of the tested compound.

The next test has as its system Bacillus subtilis. The experiment in a line: MIC determination, broth microdilution. The class given is cell-based. From the text:
(§1) Standard laboratory strains of Bacillus subtilis subs. subtilis Cohn 1872, stains BR151, and 168, Staphylococcus aureus subsp. aureus Rosenbach 1884 strains JCM 2151 and entry MC#144 (from the Microorganisms Collection of the Moscow State University), Listeria monocytogenes Pirie 1940, Mycobacterium smegmatis Lehmann and Neumann 1899 (MC#377), and Escherichia coli Castellani and Chalmers 1919, strain JW5503 (with the deletion of tolC gene), which are resistant to the chloramphenicol strains, J53rif, C600rif/pIB55-1, C600rif/pIP162-1, and C600recA naI, were used.
(§2) The MICs for CAM-Cn-TPP and Cn-TPP were determined by Mueller-Hinton broth microdilution, as recommended by CLSI in the Methods for Dilution Antimicrobial Susceptibility Tests for Bacteria that Grow Aerobically, Approved Standard, 9th ed., CLSI document M07-A9, using in-house-prepared panels. The compounds were diluted in a 96-well microtiter plate to final concentrations ranging from 0.5 to 360 μM in a 250-µL aliquot of the bacterial suspension, followed by incubation at 37 °C or 30 °C for 18 h. […] The bacterial growth was observed visually alongside OD measurements. The experiments were carried out in triplicate.
In general terms: Broth dilution looks for growth in wells or tubes with falling amounts of substance.

In the next test the test system is Mycobacterium smegmatis. The experiment in a line: MIC determination, broth microdilution. The class given is cell-based. The note with it: Mycolicibacterium smegmatis.
Excerpt: as §1, §2

A further test concerns E. coli ∆tolC-CAT. The experiment in a line: MIC determination, broth microdilution. The class given is cell-based. The note with it: Escherichia coli. Here is the method:
(§3) E. coli ∆tolC CHL-resistant strain harboring plasmid encoding for chloramphenicol acetyltransferase (cat) (pCA24N-LacZ) and the control E. coli ∆tolC strain was used to evaluate the inhibitory effect of the compounds. CHL-resistant strains of B. subtilis pHT01-cat and B. subtilis pHT01-cfr were prepared by means of a transformation of a B. subtilis 168 strain with plasmids harboring the cat and cfr genes (chloramphenicol-florfenicol resistance) gene. The cfr gene encodes for the methyltransferase, which catalyzes the methylation of […] in the 23S rRNA and causes resistance to a variety of ribosome-targeting antibiotics that bind in the A site of the bacterial ribosome.
(§4) A standard laboratory strain of E. coli JW5503, with the deletion of the tolC gene, referred to here as the ∆tolC strain, was used to obtain the ∆tolC pCA24N-LacZ strain by means of transformation with the plasmid pCA24N-LacZ-harboring chloramphenicol acetyltransferase (cat) gene.
as §2

The subject of another test is E. coli ∆tolC. The experiment in a line: MIC determination, broth microdilution. The format is cell-based. The note with it: Escherichia coli. The procedure: as §3, §4, §2
[3] abbreviates: Table 1, double-dilution method, read-out: MIC.

In brackets after ≈: the same amount, converted by molar mass. Where two headings read alike, the source gives them in different places. A value given as a limit tells only on which side of the number the result lay.

For orientation: MIC means the smallest concentration in the dilution series that meets the test's criterion for growth inhibition. In the case of `O=C(CCCCCCCCCC[P+](c1ccccc1)(c1ccccc1)c1ccccc1)N[C@H](CO)[C@H](O)c1ccc([N+](=O)[O-])cc1` [CAM-C10-TPP, (N-{[(1R,2R)-1,3-dihydroxy-1-(4-nitrophenyl)propan-2-yl]amino}-11-oxoundecyl)(triphenyl)phosphonium bromide], in the test on E. coli 70S ribosomes, the Kd came out at 400 ± 40 nM. The “greater affinity to the ribosome compared to CAM-C4-TPP” value with E. coli 70S ribosomes (ratio of KDapp) is ~ 1.5 fold. Besides, the “greater affinity to the ribosome compared to the parent CHL” value in the test on E. coli 70S ribosomes (ratio of KDapp) is ~ 7 fold. Moreover, the “induction of reporters (Katushka2S: ribosome stalling; RFP: DNA damage)” value (shortened to “induction of reporters”) in test [1] was “red pseudocolor rings are observed due to the expression of the fluorescent protein, Katushka2S (but not RFP)”. Also, the “drug-induced ribosome stalling site” value in test [2] is “blocked the ribosome progression at Val6 (Figure 2D, red arrowhead) and slightly blocked it at Ile4”. Moreover, the MIC with Bacillus subtilis stood at 2 µM; with Mycobacterium smegmatis it was 2 µM; with E. coli ∆tolC-CAT, 25 µM; against E. coli ∆tolC, 3 µM.
In the case of `O=C(CCCCCCCCCC[P+](c1ccccc1)(c1ccccc1)c1ccccc1)NCCCC(=O)N[C@H](CO)[C@H](O)c1ccc([N+](=O)[O-])cc1` [CAM-C14-TPP, N-[(1R,2R)-1,3-dihydroxy-1-(4-nitrophenyl)propan-2-yl]-4-(triphenyl)phosphoniumundecanamidobutamide bromide], in the test on E. coli 70S ribosomes, the Kd stood at 36000 ± 9000 nM. In addition, the “lower affinity to the 70S ribosome compared to CHL” value in the test with E. coli 70S ribosomes (ratio of KDapp) was ~ 13 fold. In addition, in the test with E. coli 70S ribosomes (ratio of KDapp), the “lower affinity to the 70S ribosome compared to other CAM-Cn-TPPs” value is 60-90 fold. For the same molecule, in test [1], the “induction of reporters” value is on record as “red pseudocolor rings are observed due to the expression of the fluorescent protein, Katushka2S (but not RFP)”. The “drug-induced ribosome stalling site” value in test [2] is “blocked the ribosome progression at Val6 (Figure 2D, red arrowhead) and slightly blocked it at Ile4”. For the same molecule, the MIC is 12 µM against Bacillus subtilis, 8 µM against Mycobacterium smegmatis, 12.5 µM with E. coli ∆tolC-CAT and 12.5 µM with E. coli ∆tolC.
`O=C(N[C@H](CO)[C@H](O)c1ccc([N+](=O)[O-])cc1)C(Cl)Cl` [CHL, chloramphenicol]: in the test with E. coli 70S ribosomes, the Kd turned out to be 2800 ± 400 nM. For the same molecule, the “induction of reporters” value in test [1] is listed as “red pseudocolor rings are observed due to the expression of the fluorescent protein, Katushka2S (but not RFP)”. Also, in test [2], the “drug-induced ribosome stalling site” value is reported as “stalls ribosomes at the Ile4 codon”. For the same molecule, the minimal inhibitory concentration (MIC) was 12 µM (≈ 3.88 µg/mL) in the test with Bacillus subtilis (setting [3]), 6 µM (≈ 1.94 µg/mL) with Mycobacterium smegmatis (setting [3]), greater than 360 µM against E. coli ∆tolC-CAT and 2.8 µM (≈ 0.905 µg/mL) against E. coli ∆tolC.

The values above are taken from paper PMC8145938, “Triphenilphosphonium Analogs of Chloramphenicol as Dual-Acting Antimicrobial and Antiproliferating Agents” (Antibiotics, 2021).
